According to patent US20090069301A1, “Acridine and Quinoline Derivatives as Sirtuin Modulators” (Sirtris Pharmaceuticals, Inc., priority 2005, published 2009):

Assays:
SIRT1 = biological target: T1, SIRT1 (Homo sapiens, UniProt Q96EB6); test: Fluorescence polarization or mass spectrometry based assay to identify modulators of SIRT1 activity (p53-based peptide deacetylation); type: biochemical; settings: activation of SIRT1, Table 4; read-out: ED50 (the source's name);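 further: recombinant His-tagged human SIRT1 deacetylating p53-derived acetylated peptide, detected by fluorescence polarization after trypsin cleavage, signal inversely tracking deacetylase activity, compared against activity without test compound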
T1 sequence (Q96EB6 1-747): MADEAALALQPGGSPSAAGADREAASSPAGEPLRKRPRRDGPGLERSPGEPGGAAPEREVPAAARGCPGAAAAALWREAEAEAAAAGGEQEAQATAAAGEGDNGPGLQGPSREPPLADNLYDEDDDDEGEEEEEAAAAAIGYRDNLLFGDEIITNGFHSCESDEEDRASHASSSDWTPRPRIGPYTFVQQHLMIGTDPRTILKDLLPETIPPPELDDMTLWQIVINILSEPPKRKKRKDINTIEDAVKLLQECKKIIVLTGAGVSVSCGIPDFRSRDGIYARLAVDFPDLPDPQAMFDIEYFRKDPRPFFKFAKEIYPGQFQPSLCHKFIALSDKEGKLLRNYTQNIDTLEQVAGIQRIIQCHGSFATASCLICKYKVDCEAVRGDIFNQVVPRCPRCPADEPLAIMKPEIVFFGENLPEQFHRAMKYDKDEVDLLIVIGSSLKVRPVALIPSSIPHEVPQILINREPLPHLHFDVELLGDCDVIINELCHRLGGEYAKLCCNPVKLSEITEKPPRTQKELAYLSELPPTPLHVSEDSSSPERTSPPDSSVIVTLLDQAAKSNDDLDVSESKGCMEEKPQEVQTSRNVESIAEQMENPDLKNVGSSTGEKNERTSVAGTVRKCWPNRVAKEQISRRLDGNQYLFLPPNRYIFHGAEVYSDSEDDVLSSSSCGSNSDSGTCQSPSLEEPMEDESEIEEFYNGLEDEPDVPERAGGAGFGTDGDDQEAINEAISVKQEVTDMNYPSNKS

human SIRT3 = biological target: T2, human SIRT3 (Homo sapiens, UniProt Q9NTG7); test: Fluorescence polarization assay to identify modulators of SIRT3 activity (Histone H4-based peptide deacetylation); type: biochemical; settings: activation of SIRT3, Table 6; read-out: ED50 (the source's name)
T2 construct: corresponded to amino acid residues 102-399 of human SIRT3 with an N-terminal His-tag; His-tag (N); made in house; host or cells: E. coli
T2 sequence (Q9NTG7 102-399): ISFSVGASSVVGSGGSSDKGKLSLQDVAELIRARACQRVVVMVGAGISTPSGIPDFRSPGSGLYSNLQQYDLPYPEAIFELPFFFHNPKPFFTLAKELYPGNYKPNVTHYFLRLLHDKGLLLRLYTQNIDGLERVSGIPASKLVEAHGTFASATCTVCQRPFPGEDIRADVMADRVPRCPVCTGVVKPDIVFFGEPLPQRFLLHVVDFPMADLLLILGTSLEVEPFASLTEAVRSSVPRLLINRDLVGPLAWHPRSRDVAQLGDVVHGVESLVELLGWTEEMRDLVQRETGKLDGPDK
Description: A fluorescence polarization assay was used to identify modulators of SIRT3 activity. The same assay may be used to identify modulators of any sirtuin protein. The assay utilizes a peptide substrate based on a fragment of Histone H4, a known sirtuin deacetylation target. The substrate contains a peptide having 14 amino acid residues as follows: Biotin-GASSHSK(Ac)VLK(MR121) (SEQ ID NO: 3) wherein K(Ac) is an acetylated lysine residue. The peptide is labeled with the fluorophore MR121 (excitation 635 nm/emission 680 nm) at the C-terminus and biotin at the N-terminus.
The peptide substrate is exposed to a sirtuin protein in the presence of NAD^+ to allow deacetylation of the substrate and render it sensitive to cleavage by trypsin. […] The fluorescence polarization signal observed for the full length peptide substrate bound to streptavidin is higher than the fluorescence polarization signal observed for the released MR121 C-terminal fragment. Therefore, the fluorescence polarization obtained is inversely proportional to the level of deacetylation (e.g., the signal is inversely proportional to the activity of the sirtuin protein). Results are read on a microplate fluorescence polarization reader (Molecular Devices Spectramax MD) with appropriate excitation and emission filters. […]

Work on `O=C(Nc1ccccc1N1CCOCC1)c1cc(-c2ccco2)nc2ccccc12` [Compound 8] yielded an EC50 (SIRT1) of under 50 µM and an EC50 (human SIRT3) of under 50 µM.
